According to PubChem BioAssay (NCI):
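96-well plates; 48 h exposure; 5 concentrations. Endpoints by linear interpolation between flanking doses. Not reached: highest tested concentration assigned. The concentration for 50% growth inhibition is given as GI50. At the TGI there is no net growth.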

What was measured:
Experiment in all cases: inhibition of tumour cell growth, NCI panel, 48 h
NCI-H522 lung = system: NCI-H522 lung
OVCAR-3 ovarian = system: OVCAR-3 ovarian
NCI-H226 lung = system: NCI-H226 lung
SF-268 CNS = system: SF-268 CNS
K-562 leukemia = system: K-562 leukemia
CCRF-CEM leukemia = system: CCRF-CEM leukemia
KM12 colon = system: KM12 colon
U251 CNS = system: U251 CNS
NCI-H460 lung = system: NCI-H460 lung
MDA-MB-435 = system: MDA-MB-435
HCT-15 colon = system: HCT-15 colon
BT-549 breast = system: BT-549 breast
UO-31 renal = system: UO-31 renal
CAKI-1 renal = system: CAKI-1 renal
786-0 renal = system: 786-0 renal
DU-145 prostate = system: DU-145 prostate
SK-MEL-5 melanoma = system: SK-MEL-5 melanoma
TK-10 renal = system: TK-10 renal
SW-620 colon = system: SW-620 colon
OVCAR-5 ovarian = system: OVCAR-5 ovarian
HT29 colon = system: HT29 colon
SK-MEL-2 melanoma = system: SK-MEL-2 melanoma
IGROV1 ovarian = system: IGROV1 ovarian
SR leukemia = system: SR leukemia
OVCAR-4 ovarian = system: OVCAR-4 ovarian
SNB-19 CNS = system: SNB-19 CNS
A549 NSCLC = system: A549 NSCLC
SF-295 CNS = system: SF-295 CNS
SNB-75 CNS = system: SNB-75 CNS
T-47D breast = system: T-47D breast
PC-3 prostate = system: PC-3 prostate
OVCAR-8 ovarian = system: OVCAR-8 ovarian
RPMI-8226 leukemia = system: RPMI-8226 leukemia
MOLT-4 leukemia = system: MOLT-4 leukemia
HS 578T breast = system: HS 578T breast
LOX IMVI melanoma = system: LOX IMVI melanoma
SN12C renal = system: SN12C renal
HOP-62 NSCLC = system: HOP-62 NSCLC
MDA-MB-231 breast = system: MDA-MB-231 breast
NCI/ADR-RES ovarian = system: NCI/ADR-RES ovarian
EKVX NSCLC = system: EKVX NSCLC
M14 melanoma = system: M14 melanoma
HL-60(TB) leukemia = system: HL-60(TB) leukemia
A498 renal = system: A498 renal
NCI-H23 lung = system: NCI-H23 lung
RXF 393 renal = system: RXF 393 renal
SF-539 CNS = system: SF-539 CNS
COLO 205 colon = system: COLO 205 colon
HCT-116 colon = system: HCT-116 colon
UACC-62 melanoma = system: UACC-62 melanoma
ACHN renal = system: ACHN renal
UACC-257 melanoma = system: UACC-257 melanoma
MCF7 breast = system: MCF7 breast
HCC-2998 colon = system: HCC-2998 colon
SK-OV-3 ovarian = system: SK-OV-3 ovarian
MALME-3M melanoma = system: MALME-3M melanoma

CCC(C)/C=C(C)/C=C/C(=O)c1c(O)c(-c2ccc(O)cc2)c[nH]c1=O (configuration not stated) showed a GI50 (NCI-H522 lung) of 3.3 µM, a TGI (NCI-H522 lung) of 10.8 µM and a GI50 (OVCAR-3 ovarian) of 2.79 µM. For the same compound, the TGI (OVCAR-3 ovarian) was 9.33 µM, the GI50 (NCI-H226 lung) was 8.07 µM and the TGI (NCI-H226 lung) was 22.9 µM. For the same compound, the GI50 (SF-268 CNS) was 3.19 µM, the TGI (SF-268 CNS) was 14 µM and the GI50 (K-562 leukemia) was 3.39 µM. For the same compound, the TGI (K-562 leukemia) was 15.1 µM, the GI50 (CCRF-CEM leukemia) was 2.58 µM and the TGI (CCRF-CEM leukemia) was 19.7 µM. The GI50 (KM12 colon) was 3.41 µM, the TGI (KM12 colon) was 12.4 µM and the GI50 (U251 CNS) was 3.01 µM. It also gave a TGI (U251 CNS) of 13 µM, a GI50 (NCI-H460 lung) of 3.04 µM and a TGI (NCI-H460 lung) of 8.82 µM. For the same compound, the GI50 (MDA-MB-435) was 2.94 µM, the TGI (MDA-MB-435) was 11.2 µM and the GI50 (HCT-15 colon) was 2.4 µM. The TGI (HCT-15 colon) was 12.6 µM, the GI50 (BT-549 breast) was 4.42 µM and the TGI (BT-549 breast) was 15.3 µM. The GI50 (UO-31 renal) was 2.16 µM, the TGI (UO-31 renal) was 14.3 µM and the GI50 (CAKI-1 renal) was 2.74 µM. It also gave a TGI (CAKI-1 renal) of 12.6 µM, a GI50 (786-0 renal) of 4.33 µM and a TGI (786-0 renal) of 16.7 µM. It also gave a GI50 (DU-145 prostate) of 2.87 µM, a TGI (DU-145 prostate) of 11.1 µM and a GI50 (SK-MEL-5 melanoma) of 4.29 µM. For the same compound, the TGI (SK-MEL-5 melanoma) was 16.7 µM, the GI50 (TK-10 renal) was 4.32 µM and the TGI (TK-10 renal) was 15.3 µM. For the same compound, the GI50 (SW-620 colon) was 3.5 µM, the TGI (SW-620 colon) was 11.9 µM and the GI50 (OVCAR-5 ovarian) was 6.1 µM. For the same compound, the TGI (OVCAR-5 ovarian) was 23.5 µM, the GI50 (HT29 colon) was 3.77 µM and the TGI (HT29 colon) was 14.6 µM. For the same compound, the GI50 (SK-MEL-2 melanoma) was 3.53 µM, the TGI (SK-MEL-2 melanoma) was 11 µM and the GI50 (IGROV1 ovarian) was 2.59 µM. It also gave a TGI (IGROV1 ovarian) of 15 µM, a GI50 (SR leukemia) of 2.39 µM and a TGI (SR leukemia) of 6.49 µM. For the same compound, the GI50 (OVCAR-4 ovarian) was 4.13 µM, the TGI (OVCAR-4 ovarian) was 25.3 µM and the GI50 (SNB-19 CNS) was 5.43 µM. It also gave a TGI (SNB-19 CNS) of 19.8 µM, a GI50 (A549 NSCLC) of 4.3 µM and a TGI (A549 NSCLC) of 20.1 µM. The GI50 (SF-295 CNS) was 2.89 µM, the TGI (SF-295 CNS) was 13.7 µM and the GI50 (SNB-75 CNS) was 3.3 µM. For the same compound, the TGI (SNB-75 CNS) was 14.3 µM, the GI50 (T-47D breast) was 3.22 µM and the TGI (T-47D breast) was 17 µM. For the same compound, the GI50 (PC-3 prostate) was 3.33 µM, the TGI (PC-3 prostate) was 14.4 µM and the GI50 (OVCAR-8 ovarian) was 3.12 µM. It also gave a TGI (OVCAR-8 ovarian) of 13.9 µM, a GI50 (RPMI-8226 leukemia) of 3.45 µM and a TGI (RPMI-8226 leukemia) of 17.6 µM. For the same compound, the GI50 (MOLT-4 leukemia) was 2.73 µM, the TGI (MOLT-4 leukemia) was 15.1 µM and the GI50 (HS 578T breast) was 2.49 µM. For the same compound, the TGI (HS 578T breast) was 9.56 µM, the GI50 (LOX IMVI melanoma) was 3.49 µM and the TGI (LOX IMVI melanoma) was 13.2 µM. For the same compound, the GI50 (SN12C renal) was 3.86 µM, the TGI (SN12C renal) was 18.1 µM and the GI50 (HOP-62 NSCLC) was 4.2 µM. For the same compound, the TGI (HOP-62 NSCLC) was 16.3 µM, the GI50 (MDA-MB-231 breast) was 5.09 µM and the TGI (MDA-MB-231 breast) was 21.4 µM. It also gave a GI50 (NCI/ADR-RES ovarian) of 3.53 µM, a TGI (NCI/ADR-RES ovarian) of 27.7 µM and a GI50 (EKVX NSCLC) of 4.08 µM. For the same compound, the TGI (EKVX NSCLC) was 17.6 µM, the GI50 (M14 melanoma) was 6.58 µM and the TGI (M14 melanoma) was 19.7 µM. It also gave a GI50 (HL-60(TB) leukemia) of 2.43 µM, a TGI (HL-60(TB) leukemia) of 21.2 µM and a GI50 (A498 renal) of 2.03 µM. For the same compound, the TGI (A498 renal) was 16.4 µM, the GI50 (NCI-H23 lung) was 3.62 µM and the TGI (NCI-H23 lung) was 17.6 µM. The GI50 (RXF 393 renal) was 1.96 µM, the TGI (RXF 393 renal) was 6.97 µM and the GI50 (SF-539 CNS) was 3.3 µM. The TGI (SF-539 CNS) was 12.5 µM, the GI50 (COLO 205 colon) was 7.2 µM and the TGI (COLO 205 colon) was 19.5 µM. For the same compound, the GI50 (HCT-116 colon) was 3.39 µM, the TGI (HCT-116 colon) was 13.1 µM and the GI50 (UACC-62 melanoma) was 3.73 µM. The TGI (UACC-62 melanoma) was 15.9 µM, the GI50 (ACHN renal) was 3.53 µM and the TGI (ACHN renal) was 14.2 µM. The GI50 (UACC-257 melanoma) was 4.25 µM, the TGI (UACC-257 melanoma) was 16.4 µM and the GI50 (MCF7 breast) was 2.9 µM. The TGI (MCF7 breast) was 15 µM, the GI50 (HCC-2998 colon) was 3.75 µM and the TGI (HCC-2998 colon) was 14.8 µM. The GI50 (SK-OV-3 ovarian) was 6.32 µM, the TGI (SK-OV-3 ovarian) was 29.4 µM and the GI50 (MALME-3M melanoma) was 2.36 µM. It also gave a TGI (MALME-3M melanoma) of 14.1 µM.
